{"source": "patent US7811688B2", "about": "(Enersol, Inc. N.A., LP, priority 2002, dated 2010)", "key": {"[1]": {"test_system": "human nose", "conditions": "cited from earlier work; for Olfactory Power (pOl): in air, pOl=−log [odorant] as volumetric fraction; for Olfactory Power (p. ol): Table 4"}, "[2]": {"test": "Odorant vapor pressure and odorant-hydrogen phase equilibrium (Raoult's Law)", "method": "To quantitatively validate the concentration of an odorant in the gas phase at high pressure, first order phase equilibrium equations may be used.\nIt is also assumed that the odorant is saturated. This means that at the constant pressure when odorant is added, the amount of odorant in the vapor phase remains constant. The equation used to find the fraction of the vapor phase taken solely by the odorant is Raoult's Law: xAPA^sat=yAP\nWhere, xA is the odorant's fraction of the liquid phase, yA is the odorant's fraction of the vapor phase, PA^sat is the vapor pressure of the saturated odorant, and P is the total pressure within the system.\nWith these values, the concentration of odorant may be found at ambient conditions for the storage conditions of 6,000 psi. To calculate the pressure needed to produce a certain saturated concentration of odorant in the vapor phase: […]"}, "[3]": {"test_system": "human nose", "test": "Standard human olfactory power / odor threshold", "assay_type": "in vivo", "conditions": "for Odorant Threshold: minimum detection concentration", "excerpt": "Another important property of an odorant is its odor threshold. A suitable odorant should be detectable by the human nose at very low concentrations. […] To ensure simultaneous outflow in case of a leak, both components should be in the same phase and well blended. Some odor threshold values may be found in the Handbook of Hazardous Chemical Properties. In addition, the American Industrial Hygiene Association (AIHA) publishes a book of odor threshold values (Odor Thresholds for Chemicals with Established Occupational Health Standards).\nCertain functional groups, such as the mercaptans, have high potency odors. According to published standardized human olfactory thresholds, mercaptans are among the strongest smelling compounds known. The stench of mercaptans is a key reason why these compounds were chosen for natural gas odorization. The following is a list of functional groups that may be used to highlight key factors for olfactory thresholds in humans. Standard olfactory power refers to the minimum concentration at which a particular compound is detectable by the average person. The mathematical definition is given as the negative log of odorant concentration expressed in volumetric fraction: pOl=−log [odorant]. Based on this definition an olfactory power of “0/6/9” corresponds to “odorlessness/1 ppm/1 ppb” threshold levels, respectively."}, "[4]": {"conditions": "@ 25° C.; cited from earlier work"}, "[5]": {"test_system": "average weight person", "conditions": "cited from earlier work"}}, "note": "Where a name gives a salt, the structure may show the parent alone. Read-outs that look alike come from different tables or passages of the source."}
{"smiles": "CC[Se]CC", "note": "[diethylselenide, diethyl selenide]", "values": [{"measurement": "Olfactory Power (pOl)", "setting": "[1]", "value": 9.13}]}
{"smiles": "COC=O", "note": "[methyl formate]", "values": [{"measurement": "Olfactory Power (pOl)", "setting": "[1]", "value": 4.03}]}
{"smiles": "CC(C)(C)S", "note": "[t-butyl mercaptan]", "values": [{"measurement": "Saturated Odorant Concentration yA", "setting": "[2]; @ 6000 psi, 25° C.", "value": 583, "unit": "ppm"}, {"measurement": "maximum concentration in the vapor/gas phase", "setting": "[2]; at 6000 psi", "value": "approximately 580 ppm"}, {"measurement": "Olfactory Power (pOl)", "setting": "[1]", "value": 9.48}]}
{"smiles": "CCC", "note": "[propane]", "values": [{"measurement": "Olfactory Power (pOl)", "setting": "[1]", "value": 2.57}]}
{"smiles": "CCCO", "note": "[Odorant 1-propanol, 1-propanol]", "values": [{"measurement": "Olfactory Power (pOl)", "setting": "[1]", "value": 5.62}]}
{"smiles": "CCSCC", "note": "[diethylsulfide]", "values": [{"measurement": "Olfactory Power (pOl)", "setting": "[1]", "value": 8.41}]}
{"smiles": "CO", "note": "[methanol]", "values": [{"measurement": "Olfactory Power (pOl)", "setting": "[1]", "value": 3.85}]}
{"smiles": "CS", "note": "[methyl mercaptan]", "values": [{"measurement": "Olfactory Power (pOl)", "setting": "[1]", "value": 8.98}]}
{"smiles": "CC(C)CS", "note": "[isobutyl mercaptan]", "values": [{"measurement": "Olfactory Power (pOl)", "setting": "[1]", "value": 8.95}]}
{"smiles": "COC(C)=O", "note": "[methyl acetate]", "values": [{"measurement": "Olfactory Power (pOl)", "setting": "[1]", "value": 5.21}]}
{"smiles": "CCSC", "note": "[methylethylsulfide]", "values": [{"measurement": "Olfactory Power (pOl)", "setting": "[1]", "value": 8.42}]}
{"smiles": "CC[SeH]", "note": "[ethyl selenol]", "values": [{"measurement": "times higher detectability as compared to ethyl mercaptan", "setting": "[3]; FIG. 3", "value": 67, "unit": "times"}, {"measurement": "Odorant Threshold", "setting": "[3]; Table 4", "value": 0.000018, "unit": "ppm"}, {"measurement": "detectability", "setting": "[3]; based on its olfactory power", "value": "1.8E-5", "unit": "ppm"}, {"measurement": "Odorant Vapor Pressure PA^SAT", "setting": "[2]; @ 25° C., estimated value based on known vapor pressures of structurally similar compounds", "value": "~5", "unit": "psi"}, {"measurement": "Saturated Odorant Concentration yA", "setting": "[2]; @ 6000 psi, 25° C.", "value": "~833", "unit": "ppm"}, {"measurement": "‘B’ Saturated Odorant Loading [6000 psi H2]", "setting": "[2]; PA^sat/P × 10^6 at 6000 psi", "value": 833, "unit": "ppm"}, {"measurement": "Olfactory Power (pOl)", "setting": "[1]", "value": 10.74}]}
{"smiles": "CN(C)C", "note": "[trimethyl amine]", "values": [{"measurement": "Saturated Odorant Concentration yA", "setting": "[2]; @ 6000 psi, 25° C.", "value": 5172, "unit": "ppm"}, {"measurement": "Odorant Vapor Pressure PA^SAT", "setting": "[4]", "value": 31.0, "unit": "psi"}]}
{"smiles": "CCO", "note": "[ethanol]", "values": [{"measurement": "Odorant Threshold", "setting": "[3]; Table 4", "value": 28.840, "unit": "ppm"}, {"measurement": "‘B’ Saturated Odorant Loading [6000 psi H2]", "setting": "[2]; PA^sat/P × 10^6 at 6000 psi", "value": 190, "unit": "ppm"}, {"measurement": "concentration in the vapor phase", "setting": "[2]; at 6000 psi", "value": "≤ 190", "unit": "ppm"}, {"measurement": "Olfactory Power (pOl)", "setting": "[1]", "value": 4.54}]}
{"smiles": "C[Se]C", "note": "[dimethyl selenide]", "values": [{"measurement": "Saturated Odorant Concentration yA", "setting": "[2]; @ 6000 psi, 25° C.", "value": 773, "unit": "ppm"}, {"measurement": "Odorant Vapor Pressure PA^SAT", "setting": "[4]", "value": 4.6, "unit": "psi"}]}
{"smiles": "CCNCC", "note": "[diethylamine]", "values": [{"measurement": "Olfactory Power (pOl)", "setting": "[1]", "value": 6.73}]}
{"smiles": "CC", "note": "[ethane]", "values": [{"measurement": "Olfactory Power (pOl)", "setting": "[1]", "value": 2.00}]}
{"smiles": "c1ccncc1", "note": "[pyridine]", "values": [{"measurement": "Odorant Threshold", "setting": "[3]; Table 4", "value": 0.08511, "unit": "ppm"}, {"measurement": "Saturated Odorant Concentration yA", "setting": "[2]", "value": 67, "unit": "ppm"}, {"measurement": "maximum concentration in the vapor/gas phase", "setting": "[2]", "value": 67, "unit": "ppm"}, {"measurement": "‘B’ Saturated Odorant Loading [6000 psi H2]", "setting": "[2]", "value": 67, "unit": "ppm"}, {"measurement": "Olfactory Power (p. ol)", "setting": "[1]", "value": 7.07}, {"measurement": "Odorant Vapor Pressure PA^SAT", "setting": "[4]", "value": 0.4, "unit": "psi"}]}
{"smiles": "CCS", "note": "[ethyl mercaptan]", "values": [{"measurement": "times higher detectability as compared to ethanol", "setting": "[3]; FIG. 3", "value": "30,000 times"}, {"measurement": "Odorant Threshold", "setting": "[3]; Table 3", "value": 0.00107, "unit": "ppm"}, {"measurement": "Odorant Threshold", "setting": "[3]; Table 4", "value": 0.001072, "unit": "ppm"}, {"measurement": "Saturated Odorant Concentration yA", "setting": "[2]; @ 6000 psi, 25° C.", "value": 1705, "unit": "ppm"}, {"measurement": "‘B’ Saturated Odorant Loading [6000 psi H2]", "setting": "[2]; PA^sat/P × 10^6 at 6000 psi", "value": 1705, "unit": "ppm"}, {"measurement": "Olfactory Power (p. ol)", "setting": "[1]", "value": 8.97}, {"measurement": "Olfactory Power (pOl)", "setting": "[1]", "value": 8.97}, {"measurement": "Odorant Vapor Pressure PA^SAT", "setting": "[4]", "value": 10.2, "unit": "psi"}]}
{"smiles": "CCCN", "note": "[propylamine, propyl amine]", "values": [{"measurement": "Odorant Threshold", "setting": "[3]; Table 4", "value": 0.01097, "unit": "ppm"}, {"measurement": "Saturated Odorant Concentration yA", "setting": "[2]; @ 6000 psi, 25° C.", "value": 999, "unit": "ppm"}, {"measurement": "‘B’ Saturated Odorant Loading [6000 psi H2]", "setting": "[2]; PA^sat/P × 10^6 at 6000 psi", "value": 999, "unit": "ppm"}, {"measurement": "Olfactory Power (pOl)", "setting": "[1]", "value": 7.96}, {"measurement": "Odorant Vapor Pressure PA^SAT", "setting": "[4]", "value": 6.0, "unit": "psi"}]}
{"smiles": "CC=O", "note": "[acetaldehyde]", "values": [{"measurement": "Olfactory Power (pOl)", "setting": "[1]", "value": 6.73}]}
{"smiles": "CC(C)=O", "note": "[acetone]", "values": [{"measurement": "Olfactory Power (pOl)", "setting": "[1]", "value": 4.84}]}
{"smiles": "CNC", "note": "[dimethylamine, dimethyl amine]", "values": [{"measurement": "Odorant Threshold", "setting": "[3]; Table 4", "value": 0.08128, "unit": "ppm"}, {"measurement": "Saturated Odorant Concentration yA", "setting": "[2]", "value": 4892, "unit": "ppm"}, {"measurement": "‘B’ Saturated Odorant Loading [6000 psi H2]", "setting": "[2]", "value": 4892, "unit": "ppm"}, {"measurement": "Olfactory Power (pOl)", "setting": "[1]", "value": 7.09}, {"measurement": "Odorant Vapor Pressure PA^SAT", "setting": "[4]", "value": 29.4, "unit": "psi"}]}
{"smiles": "CCCC", "note": "[butane]", "values": [{"measurement": "Olfactory Power (pOl)", "setting": "[1]", "value": 3.69}]}
{"smiles": "[Se]", "note": "[selenium]", "values": [{"measurement": "ingested quantity at which selenosis occurs", "setting": "[5]", "value": 5, "unit": "mg/day"}]}
{"smiles": "CCN", "note": "[ethylamine, ethyl amine]", "values": [{"measurement": "Olfactory Power (pOl)", "setting": "[1]", "value": 6.49}]}
{"smiles": "CCCl", "note": "[ethylchloride]", "values": [{"measurement": "Odorant Threshold", "setting": "[3]; Table 4", "value": 4.074, "unit": "ppm"}, {"measurement": "‘B’ Saturated Odorant Loading [6000 psi H2]", "setting": "[2]; PA^sat/P × 10^6 at 6000 psi", "value": 3256, "unit": "ppm"}, {"measurement": "Olfactory Power (pOl)", "setting": "[1]", "value": 5.39}]}
{"smiles": "CSC", "note": "[dimethylsulfide]", "values": [{"measurement": "Olfactory Power (pOl)", "setting": "[1]", "value": 8.65}]}
{"smiles": "CN", "note": "[methylamine, methyl amine]", "values": [{"measurement": "Odorant Threshold", "setting": "[3]; Table 4", "value": 0.01862, "unit": "ppm"}, {"measurement": "‘B’ Saturated Odorant Loading [6000 psi H2]", "setting": "[2]; PA^sat/P × 10^6 at 6000 psi", "value": 8543, "unit": "ppm"}, {"measurement": "Olfactory Power (pOl)", "setting": "[1]", "value": 7.73}]}
